Reference: the supplement of paper PMC11665569

Key:
Test in all cases: relative viability (fraction of vehicle control); higher = more viable / less inhibited
Conditions in all cases: treatment time: 5 days
SW1573 = system: SW1573
Procedure: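 CCK-8 viability of SW1573 cells transfected with control, YAP/TAZ or TEAD1-4 siRNAs and treated with KRAS G12C inhibitors for 5 days. Values are normalised to vehicle control.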

KYSE410 = system: KYSE410
Procedure: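 CCK-8 viability of KYSE410 cells transfected with control, YAP/TAZ or TEAD1-4 siRNAs and treated with KRAS G12C inhibitors for 5 days. Values are normalised to vehicle control.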

H1373 = system: H1373
Procedure: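 CCK-8 viability of H1373 cells with empty vector or constitutively active YAP S127A, treated with KRAS G12C inhibitors for 5 days, normalised to vehicle control.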

C=CC(=O)N1CCN(c2nc(=O)n(-c3c(C)ccnc3C(C)C)c3nc(-c4c(O)cccc4F)c(F)cc23)[C@@H](C)C1 [AMG510]
relative viability
Conditions	H1373	KYSE410	SW1573
log10 concentration (uM): 0, ectopic expression: YAP S127A	0.575	–	–
log10 concentration (uM): 0, ectopic expression: empty vector (YAP experiment)	0.267	–	–
log10 concentration (uM): 0, siRNA knockdown: TEAD1-4 siRNA 1	–	0.586	0.313
log10 concentration (uM): 0, siRNA knockdown: TEAD1-4 siRNA 2	–	0.488	0.433
log10 concentration (uM): 0, siRNA knockdown: YAP/TAZ siRNA 1	–	0.416	0.262
log10 concentration (uM): 0, siRNA knockdown: YAP/TAZ siRNA 2	–	0.353	0.182
log10 concentration (uM): 0, siRNA knockdown: negative control siRNA	–	0.695	0.809
log10 concentration (uM): 1, ectopic expression: YAP S127A	0.47	–	–
log10 concentration (uM): 1, ectopic expression: empty vector (YAP experiment)	0.245	–	–
log10 concentration (uM): 1, siRNA knockdown: TEAD1-4 siRNA 1	–	0.181	0.397
log10 concentration (uM): 1, siRNA knockdown: TEAD1-4 siRNA 2	–	0.118	0.515
log10 concentration (uM): 1, siRNA knockdown: YAP/TAZ siRNA 1	–	0.141	0.554
log10 concentration (uM): 1, siRNA knockdown: YAP/TAZ siRNA 2	–	0.137	0.357
log10 concentration (uM): 1, siRNA knockdown: negative control siRNA	–	0.382	0.782
log10 concentration (uM): 1.301029996, ectopic expression: YAP S127A	0.25	–	–
log10 concentration (uM): 1.301029996, ectopic expression: empty vector (YAP experiment)	0.12	–	–
log10 concentration (uM): 1.301029996, siRNA knockdown: TEAD1-4 siRNA 1	–	0.0525	0.138
log10 concentration (uM): 1.301029996, siRNA knockdown: TEAD1-4 siRNA 2	–	0.0471	0.288
log10 concentration (uM): 1.301029996, siRNA knockdown: YAP/TAZ siRNA 1	–	0.0378	0.337
log10 concentration (uM): 1.301029996, siRNA knockdown: YAP/TAZ siRNA 2	–	0.0518	0.257
log10 concentration (uM): 1.301029996, siRNA knockdown: negative control siRNA	–	0.164	0.461
log10 concentration (uM): -1, ectopic expression: YAP S127A	0.581	–	–
log10 concentration (uM): -1, ectopic expression: empty vector (YAP experiment)	0.351	–	–
log10 concentration (uM): -1, siRNA knockdown: TEAD1-4 siRNA 1	–	0.691	0.338
log10 concentration (uM): -1, siRNA knockdown: TEAD1-4 siRNA 2	–	0.63	0.365
log10 concentration (uM): -1, siRNA knockdown: YAP/TAZ siRNA 1	–	0.59	0.164
log10 concentration (uM): -1, siRNA knockdown: YAP/TAZ siRNA 2	–	0.489	0.111
log10 concentration (uM): -1, siRNA knockdown: negative control siRNA	–	0.749	0.783
log10 concentration (uM): -1.30103, ectopic expression: YAP S127A	0.619	–	–
log10 concentration (uM): -1.30103, ectopic expression: empty vector (YAP experiment)	0.407	–	–
log10 concentration (uM): -1.30103, siRNA knockdown: TEAD1-4 siRNA 1	–	0.727	0.346
log10 concentration (uM): -1.30103, siRNA knockdown: TEAD1-4 siRNA 2	–	0.664	0.421
log10 concentration (uM): -1.30103, siRNA knockdown: YAP/TAZ siRNA 1	–	0.643	0.183
log10 concentration (uM): -1.30103, siRNA knockdown: YAP/TAZ siRNA 2	–	0.522	0.147
log10 concentration (uM): -1.30103, siRNA knockdown: negative control siRNA	–	0.775	0.792
log10 concentration (uM): -2, ectopic expression: YAP S127A	0.636	–	–
log10 concentration (uM): -2, ectopic expression: empty vector (YAP experiment)	0.624	–	–
log10 concentration (uM): -2, siRNA knockdown: TEAD1-4 siRNA 1	–	0.946	0.562
log10 concentration (uM): -2, siRNA knockdown: TEAD1-4 siRNA 2	–	1.02	0.502
log10 concentration (uM): -2, siRNA knockdown: YAP/TAZ siRNA 1	–	0.841	0.323
log10 concentration (uM): -2, siRNA knockdown: YAP/TAZ siRNA 2	–	0.713	0.244
log10 concentration (uM): -2, siRNA knockdown: negative control siRNA	–	0.884	0.886
log10 concentration (uM): -2.30103, ectopic expression: YAP S127A	0.71	–	–
log10 concentration (uM): -2.30103, ectopic expression: empty vector (YAP experiment)	0.68	–	–
log10 concentration (uM): -2.30103, siRNA knockdown: TEAD1-4 siRNA 1	–	0.967	0.672
log10 concentration (uM): -2.30103, siRNA knockdown: TEAD1-4 siRNA 2	–	0.941	0.725
log10 concentration (uM): -2.30103, siRNA knockdown: YAP/TAZ siRNA 1	–	0.929	0.437
log10 concentration (uM): -2.30103, siRNA knockdown: YAP/TAZ siRNA 2	–	0.7753	0.37
log10 concentration (uM): -2.30103, siRNA knockdown: negative control siRNA	–	0.9373	0.934
log10 concentration (uM): -3, ectopic expression: YAP S127A	0.834	–	–
log10 concentration (uM): -3, ectopic expression: empty vector (YAP experiment)	0.937	–	–
log10 concentration (uM): -3, siRNA knockdown: TEAD1-4 siRNA 1	–	1.21	0.815
log10 concentration (uM): -3, siRNA knockdown: TEAD1-4 siRNA 2	–	1.19	0.893
log10 concentration (uM): -3, siRNA knockdown: YAP/TAZ siRNA 1	–	0.996	0.615
log10 concentration (uM): -3, siRNA knockdown: YAP/TAZ siRNA 2	–	0.961	0.587
log10 concentration (uM): -3, siRNA knockdown: negative control siRNA	–	0.953	1
log10 concentration (uM): -4, ectopic expression: YAP S127A	0.986	–	–
log10 concentration (uM): -4, ectopic expression: empty vector (YAP experiment)	1.01	–	–
log10 concentration (uM): -4, siRNA knockdown: TEAD1-4 siRNA 1	–	1.08	0.98
log10 concentration (uM): -4, siRNA knockdown: TEAD1-4 siRNA 2	–	1.32	0.974
log10 concentration (uM): -4, siRNA knockdown: YAP/TAZ siRNA 1	–	1.03	0.969
log10 concentration (uM): -4, siRNA knockdown: YAP/TAZ siRNA 2	–	0.998	0.928
log10 concentration (uM): -4, siRNA knockdown: negative control siRNA	–	0.951	1.02
